This experiment concerns intracellular PK-C. The experiment in a line: [3H]PDBu binding to intact HL-60 cells. The following applies: 37° C., 30 minutes, FIG. 9, compared with naturally occurring diacylglycerol DiC8. Format: cell-based, human. As for the experimental part:
The diacylglycerol composition under investigation was stored in chloroform at -20° C. Prior to use, the diacylglycerol was dried under nitrogen and sonicated in RPMI-1640 growth media. HL-60 cells, derived from a human leukemia cell line, were cultured in RPMI-1640 growth media containing 10% horse serum. The cells were placed in fresh serum-containing growth media 24 hours prior to the experiment. Then, cells in log phase growth were placed in normal serum containing growth media with 20 mM HEPES buffer (pH 7.4) at a concentration of 5×10^6 cells/ml. The cells were incubated at 37° C. in 5% CO2 /air in the presence of [^3 H]PDBu and various concentrations of diacylglycerol.
Binding reactions were stopped after 30 minutes by filtering the cells over Whatman glass fiber GF/C filters and rinsing with cold phosphate buffered saline (pH 7.4). The filters were then dried and counted with a scintillation counter. Nonspecific binding was determined by adding 2 μM non-tritiated phorbol diester to parallel binding reactions. Specific [^3 H]PDBu binding was calculated by subtracting nonspecific [^3 H]PDBu from the total. All binding data are expressed in terms of specific binding. Specific binding typically represented 80% of the total.

Take `CCCCCCCC(=O)OCC(CO)OC(=O)CCc1cccc(I)c1` (racemic) [OIPG, 1-octanoyl-2-[3-(m-iodophenyl)propanoyl]-rac-glycerol]: the “diacylglycerol inhibition of [3H]PDBu binding in intact HL-60 cells” value is “capable of entering intact cells and binding to intracellular PK-C in a manner similar to a naturally occurring diacylglycerol”.
